Test results from patent US11737989B2, “Clevidipine nanoparticles and pharmaceutical compositions thereof” (CHIESI Farmaceutici S.p.A., priority 2014, dated 2023).

Experiments:
[1] = in vivo; cited from earlier work
[2] = cited from earlier work
[3] = Oxidative degradation of clevidipine: influence of oxygen content in headspace (H324/78); format: physicochemical; settings: exposed to ambient light
From the text: Nanoparticle formulations with clevidipine (formulation numbers 31, 40 and 42) as well as clevidipine solutions were purged either with nitrogen or compressed air, and exposed to ambient light to determine the effect of head space oxygen on the formation of oxidative degradation product, H324/78.

For `CCCC(=O)OCOC(=O)C1=C(C)NC(C)=C(C(=O)OC)C1c1cccc(Cl)c1Cl` (centres unmarked) [Clevidipine, clevidipine], the Initial phase half-life [1] is listed as “about one minute”, the Solubility in lipids [2] is listed as “moderate” and the Solubility in water [2] is listed as “negligible”. The “H324/78 (% Area)” value ([3]; purged with compressed air (Air)) was 3.06 % Area and the “H324/78 (% Area)” value ([3]; purged with nitrogen (N2)) was 2.54 % Area.
